Data set [1] concerns the target T1, Pgp (Homo sapiens, UniProt P08183).
T1 construct: expressed in transfected cells; host or cells: MDCK (Madin-Darby Canine Kidney) cells, gift of Dr. Maria Alessandra Contino, University of Bari
Further details: method as in PMID 27336199, PMID 26797828. Particulars: cited from earlier work.

A further data set concerns Caco-2 cells monolayer. Further details: method as in PMID 27336199, PMID 26797828. The note with it: cited from earlier work.
The target of the next data set is T2, MRP1 (Homo sapiens, UniProt P33527).
T2 construct: expressed in transfected cells; host or cells: MDCK (Madin-Darby Canine Kidney) cells, gift of Dr. Maria Alessandra Contino, University of Bari
The data set can be described thus: Doxorubicin transport across MRP1-MDCK monolayer. The class given is cell-based. The note with it: 1 nM compound 24 h, 5 μM doxorubicin last 3 h. As for the experimental part: (§1) MDCK, Pgp-MDCK, MRP1-MDCK and BCRP-MDCK cells were a kind gift of Dr. Maria Alessandra Contino (Department of Pharmacy, University of Bari, Italy). Culture and seeding conditions for doxorubicin transport assay were carried out as reported in [37].
(§2) Supplementary Figure S3. Effects of Pgp ligands on doxorubicin transport in Pgp-MDCK,
(§3) MRP1-MDCK and BCRP-MDCK cells
(§4) A. MDCK, Pgp-MDCK, MRP1-MDCK, BCRP-MDCK cells were lysed and immunoblotted with
(§5) h. When indicated, 50 μM verapamil (ver), an inhibitor of Pgp, 25 μM MK571, an inhibitor of […]

For another data set, the target named is T3, BCRP (Homo sapiens, UniProt Q9UNQ0).
T3 construct: expressed in transfected cells; host or cells: MDCK (Madin-Darby Canine Kidney) cells, gift of Dr. Maria Alessandra Contino, University of Bari
T3 sequence (Q9UNQ0 1-655): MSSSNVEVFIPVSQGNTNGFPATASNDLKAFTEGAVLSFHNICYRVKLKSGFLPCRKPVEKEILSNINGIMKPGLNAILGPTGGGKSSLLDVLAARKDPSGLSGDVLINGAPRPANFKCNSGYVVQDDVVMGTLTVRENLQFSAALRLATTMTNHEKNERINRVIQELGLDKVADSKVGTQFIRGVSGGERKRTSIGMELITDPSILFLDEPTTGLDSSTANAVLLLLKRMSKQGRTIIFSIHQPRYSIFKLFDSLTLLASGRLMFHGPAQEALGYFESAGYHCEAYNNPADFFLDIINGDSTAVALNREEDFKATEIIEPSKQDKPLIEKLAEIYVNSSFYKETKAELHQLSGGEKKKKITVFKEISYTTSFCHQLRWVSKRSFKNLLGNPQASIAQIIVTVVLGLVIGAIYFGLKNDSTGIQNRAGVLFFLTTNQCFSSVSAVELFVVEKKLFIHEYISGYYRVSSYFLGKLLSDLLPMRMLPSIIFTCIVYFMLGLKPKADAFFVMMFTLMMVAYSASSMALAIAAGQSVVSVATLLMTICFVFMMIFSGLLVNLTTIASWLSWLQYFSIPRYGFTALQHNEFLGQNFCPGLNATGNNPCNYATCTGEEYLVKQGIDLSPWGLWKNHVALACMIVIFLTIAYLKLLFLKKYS
The data set can be described thus: Doxorubicin transport across BCRP-MDCK monolayer. The class given is cell-based. The note with it: 1 nM compound 24 h, 5 μM doxorubicin last 3 h. On the procedure: as §1, §2, §3, §4, §5

Data set [2] addresses T1, Pgp. The data set can be described thus: Doxorubicin transport across Pgp-MDCK monolayer. It is filed as cell-based. Particulars: 1 nM compound 24 h, 5 μM doxorubicin last 3 h. On the procedure: as §1, §2, §3
A. MDCK, Pgp-MDCK, MRP1-MDCK, BCRP-MDCK cells were lysed and immunoblotted with […]

The target in data set [3] is T1, Pgp. The note with it: Pgp activity, calcein-AM transport; cited from earlier work.
The test system of the next data set is hCMEC/D3 cells. The data set can be described thus: Transendothelial electrical resistance (TEER) of BBB monolayer. It is filed as cell-based, human. The note with it: 24 h.
Data set [4] has as its system hCMEC/D3 cells monolayer. The data set can be described thus: Doxorubicin delivery across BBB monolayer (Transwell). The note with it: 25 μM MK571 or 5 μM fumitremorgin C alone, 5 μM doxorubicin 3 h.
Procedure: Cells were seeded at 50,000/cm² density, and grown for 7 days up to confluence in 6-well Transwell devices (0.4 μm diameter pores-size, Transwell insert surface: 4.67 cm^2; Corning Life Sciences, Chorges, France for transport assays) or 24-well Transwell devices (0.4 μm diameter pores-size, Transwell insert surface: 0.33 cm^2; Corning Life Sciences, for TEER measurements), to allow the formation of a competent BBB. […] TEER was measured using a Voltohmetro Millicell-ERS (Millipore, Bedford, MA, USA), according to the manufacturer’s instructions. […] This value was subtracted from each value obtained in the presence of the cells.
(A) Human cellular microvascular endothelial cells/D3 clone hCMEC/D3 cells were grown in the upper insert of Transwell devices for 7 days. […] Cell viability was measured by a chemiluminescence-based assay, in triplicates. Data are presented as means ± SD (n = 4). […] (B) hCMEC/D3 cells were grown in the upper insert of Transwell devices for 7 days. […] Cells were lysed and immunoblotted with the indicated antibodies. β-Tubulin level was used as control of equal protein loading. […] The amount of doxorubicin in the medium of the lower chamber was measured spectrofluorimetrically, in duplicates. […]
doxorubicin in the medium of the lower chamber was measured spectrofluorimetrically, in […]
In data set [5] the test system is primary human GB adherent cells (AC). The data set can be described thus: Cytotoxicity (LDH release, caspase 3 activity, cell viability) in glioblastoma adherent cells. The class given is cell-based. The note with it: 5 µM doxorubicin alone. As for the experimental part: Cell viability was evaluated by ATPLite kit (PerkinElmer), as per manufacturer’s instructions. The results were expressed as percentage of viable cells in each experimental condition versus untreated cells (considered 100%).
The release of LDH in cell supernatant was measured as reported in [16], using a Synergy HT microplate reader. Both intracellular and extracellular enzyme activities were expressed as μmol NADH oxidized/min/dish, then extracellular LDH activity was calculated as percentage of the total LDH activity. For cytotoxicity assays in co-cultures, 5 μM doxorubicin, alone or in the presence of compounds, was added to the upper chamber of Transwell inserts. After 24 h, both cell culture medium and GB cells from the lower chamber were collected, and checked for the activity of LDH, as described above.
The activity of caspase 3, taken as an index of apoptosis, was measured by incubating 20 µg of cell lysates, collected from GB cells or GB cells growing under BBB monolayer, as reported above, with the fluorogenic substrate of caspase 3 DEVD-7-amino-4-methylcumarine (DEVD-AMC), as reported in [11]. Results were expressed as nmoles AMC/mg proteins, using a calibration curve previously set.
Figure 3 Effects of Pgp ligands on doxorubicin cytotoxicity in glioblastoma cells. Adherent cells (AC) or neurospheres (NS) from glioblastoma samples were grown for 24 h (panel A–B) or 48 h (panel C) in fresh medium (ctrl) or in the presence of 1 nM of compounds 1–6. When indicated, 5 µM doxorubicin (doxo) was co-incubated. (A) The cell culture supernatant was checked spectrophotometrically for the extracellular activity of LDH, in duplicates. Pooled data of patients 1-3 are presented as means ± SD (n = 3). Vs. AC ctrl: * p < 0.001; vs. NS ctrl: ° p < 0.001; vs. NS doxo: ^# p < 0.001. (B) The activity of caspase 3 was measured fluorimetrically, in duplicates. Data are means ± SD (n = 3). Pooled data of patients 1–3 are presented as means ± SD (n = 3). Vs. AC ctrl: * p < 0.001; vs. NS ctrl: ° p < 0.01; vs. NS doxo: ^# p < 0.05. […] Pooled data of patients 1-3 are presented as means ± SD (n = 3). […]

Data set [6] has as its system hCMEC/D3 cells monolayer. The data set can be described thus: Permeability of dextran-FITC, sucrose, inulin and lucifer yellow across BBB monolayer.

Read-outs that look alike come from different tables or passages of the source.

T1 sequence (P08183 whole entry): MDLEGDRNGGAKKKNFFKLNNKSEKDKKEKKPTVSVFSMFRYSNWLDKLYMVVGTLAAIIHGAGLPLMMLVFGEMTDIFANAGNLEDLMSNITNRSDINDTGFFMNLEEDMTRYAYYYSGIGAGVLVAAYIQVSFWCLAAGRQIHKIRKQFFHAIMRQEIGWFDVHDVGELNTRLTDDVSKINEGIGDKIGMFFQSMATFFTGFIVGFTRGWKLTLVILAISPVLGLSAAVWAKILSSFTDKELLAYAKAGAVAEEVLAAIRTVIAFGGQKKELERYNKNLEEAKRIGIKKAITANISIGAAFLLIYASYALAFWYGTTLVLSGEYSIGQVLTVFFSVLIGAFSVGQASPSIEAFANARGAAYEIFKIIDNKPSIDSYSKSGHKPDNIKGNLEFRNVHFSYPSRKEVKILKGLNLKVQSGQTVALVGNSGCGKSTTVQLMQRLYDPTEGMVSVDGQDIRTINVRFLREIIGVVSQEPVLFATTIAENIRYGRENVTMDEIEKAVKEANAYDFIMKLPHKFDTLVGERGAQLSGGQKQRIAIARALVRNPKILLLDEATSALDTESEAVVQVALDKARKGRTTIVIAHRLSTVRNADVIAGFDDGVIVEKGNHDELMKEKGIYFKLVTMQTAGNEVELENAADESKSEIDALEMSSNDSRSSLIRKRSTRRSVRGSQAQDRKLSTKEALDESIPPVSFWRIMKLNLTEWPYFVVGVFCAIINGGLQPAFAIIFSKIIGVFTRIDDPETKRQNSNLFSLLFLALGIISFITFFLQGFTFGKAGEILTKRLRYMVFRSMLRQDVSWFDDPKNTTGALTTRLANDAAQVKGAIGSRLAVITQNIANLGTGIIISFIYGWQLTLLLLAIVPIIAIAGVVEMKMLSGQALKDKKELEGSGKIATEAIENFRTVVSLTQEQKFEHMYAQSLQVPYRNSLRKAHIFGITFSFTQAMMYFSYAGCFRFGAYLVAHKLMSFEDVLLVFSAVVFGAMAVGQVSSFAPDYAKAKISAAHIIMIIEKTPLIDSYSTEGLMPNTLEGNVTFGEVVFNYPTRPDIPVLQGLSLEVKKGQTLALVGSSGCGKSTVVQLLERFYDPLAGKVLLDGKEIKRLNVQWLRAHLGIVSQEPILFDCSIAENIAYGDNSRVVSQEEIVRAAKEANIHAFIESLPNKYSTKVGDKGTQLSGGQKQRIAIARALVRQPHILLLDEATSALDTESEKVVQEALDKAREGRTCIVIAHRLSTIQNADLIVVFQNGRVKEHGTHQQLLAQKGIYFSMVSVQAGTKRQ
T2 sequence (P33527 whole entry): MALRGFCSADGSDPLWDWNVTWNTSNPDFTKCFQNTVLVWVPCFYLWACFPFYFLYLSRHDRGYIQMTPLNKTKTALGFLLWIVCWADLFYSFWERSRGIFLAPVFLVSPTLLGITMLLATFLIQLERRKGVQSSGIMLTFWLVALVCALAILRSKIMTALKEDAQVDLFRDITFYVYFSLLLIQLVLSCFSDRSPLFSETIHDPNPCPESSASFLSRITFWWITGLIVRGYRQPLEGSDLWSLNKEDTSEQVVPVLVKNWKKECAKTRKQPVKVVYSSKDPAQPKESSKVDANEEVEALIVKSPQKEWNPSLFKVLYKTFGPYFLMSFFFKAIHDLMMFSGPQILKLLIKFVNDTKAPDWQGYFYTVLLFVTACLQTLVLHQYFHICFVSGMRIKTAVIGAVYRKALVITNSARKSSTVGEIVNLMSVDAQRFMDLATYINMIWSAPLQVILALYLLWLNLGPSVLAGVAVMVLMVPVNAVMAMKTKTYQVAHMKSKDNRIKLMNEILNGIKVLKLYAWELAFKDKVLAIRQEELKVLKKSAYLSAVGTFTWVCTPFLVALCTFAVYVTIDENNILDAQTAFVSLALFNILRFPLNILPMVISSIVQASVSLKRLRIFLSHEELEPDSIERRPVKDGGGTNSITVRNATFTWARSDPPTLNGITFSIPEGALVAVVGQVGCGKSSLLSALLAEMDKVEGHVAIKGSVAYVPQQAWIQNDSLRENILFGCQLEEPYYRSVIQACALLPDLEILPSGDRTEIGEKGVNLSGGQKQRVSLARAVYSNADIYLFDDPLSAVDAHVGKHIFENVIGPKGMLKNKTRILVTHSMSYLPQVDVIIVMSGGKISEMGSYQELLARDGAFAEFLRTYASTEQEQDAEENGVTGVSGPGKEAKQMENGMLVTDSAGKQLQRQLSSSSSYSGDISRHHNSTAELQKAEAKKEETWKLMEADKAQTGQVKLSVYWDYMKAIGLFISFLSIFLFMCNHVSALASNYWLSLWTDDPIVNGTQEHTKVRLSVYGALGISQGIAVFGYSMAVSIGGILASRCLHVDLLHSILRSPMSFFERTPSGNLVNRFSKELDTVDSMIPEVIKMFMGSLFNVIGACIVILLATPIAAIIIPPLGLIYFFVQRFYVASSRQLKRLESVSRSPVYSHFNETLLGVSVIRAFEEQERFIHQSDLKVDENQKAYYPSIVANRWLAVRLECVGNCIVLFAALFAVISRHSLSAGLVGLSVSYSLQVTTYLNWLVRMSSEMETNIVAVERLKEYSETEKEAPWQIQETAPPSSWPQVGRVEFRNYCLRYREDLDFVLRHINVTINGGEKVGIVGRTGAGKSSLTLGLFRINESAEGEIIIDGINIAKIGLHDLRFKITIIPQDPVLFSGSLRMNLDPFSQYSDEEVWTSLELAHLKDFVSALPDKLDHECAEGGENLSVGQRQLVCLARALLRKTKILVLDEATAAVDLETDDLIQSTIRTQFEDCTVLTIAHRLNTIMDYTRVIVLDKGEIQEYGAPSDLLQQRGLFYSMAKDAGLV

As to `COc1cc2c(cc1OC)CN(Cc1ccc(-c3ccc(O)cc3)cc1)CC2` [7 (MC70), 4′-(6,7-Dimethoxy-3,4-dihydro-1H-isoquinolin-2-ylmethyl)biphenyl-4-ol], on Pgp [1], the ATP depletion result is listed as “does not induce ATP depletion”. Further, the apparent permeability ratio in the data set with Caco-2 cells monolayer was below 2.

In general, EC50 refers to the concentration at which the effect is half-maximal. `CCCCOc1ccc(-c2ccc(CN3CCc4cc(OC)c(OC)cc4C3)cc2)cc1` [Compound 6]: on MRP1, the “doxorubicin delivery across MRP1-MDCK cells” value is reported as “strongly reduced”. In addition, the “doxorubicin delivery across BCRP-MDCK cells” value on BCRP is “strongly reduced”. In addition, on Pgp [2], the “doxorubicin permeability across Pgp-MDCK monolayer” value is “did not change”. Also, the EC50 at Pgp [3] was 5.2 nM. In addition, the “TEER (Ω cm^2) Compound 1 nM” value in the data set on hCMEC/D3 cells (1 nM compound) was 33 ± 2 Ω cm^2. For the same compound, the “TEER (Ω cm^2) Compound 100 nM” value in the data set on hCMEC/D3 cells (100 nM compound) was 31 ± 4 Ω cm^2.

Turning to `CN(C)C(=O)CCSC(SCCC(=O)O)c1cccc(/C=C/c2ccc3ccc(Cl)cc3n2)c1` (stereo not drawn) [MK571], in the data set with hCMEC/D3 cells monolayer [4], the “doxorubicin delivery across hCMEC/D3 cells monolayer” value is “increased”.

Regarding `COc1cccc2c1C(=O)c1c(O)c3c(c(O)c1C2=O)C[C@@](O)(C(=O)CO)C[C@@H]3O[C@H]1C[C@H](N)[C@H](O)[C@H](C)O1` [doxorubicin], in data set [5] (24 h), the LDH release result was “increased” and the “caspase 3 activity” value is “increased”. In addition, in data set [5] (48 h), the cell viability result is reported as “decreased”.

For `COc1ccc2c3c([nH]c2c1)[C@H](C=C(C)C)N1C(=O)[C@@H]2CCCN2C(=O)[C@@H]1C3` [fumitremorgin C], the “doxorubicin delivery across hCMEC/D3 cells monolayer” value with hCMEC/D3 cells monolayer [4] was “increased”.

Take [^14C]-inulin: the “permeability coefficient across BBB monolayer” value with hCMEC/D3 cells monolayer [6] (hCMEC/D3 monolayer without compounds, 3 h) was 0.45 ± 0.07 × 10^−3 cm·min^−1.

With lucifer yellow, the “permeability coefficient across BBB monolayer” value with hCMEC/D3 cells monolayer [6] is listed as 0.43 ± 0.11 × 10^−3 cm·min^−1.

The values are drawn from PMC6099747, “New Tetrahydroisoquinoline Derivatives Overcome Pgp Activity in Brain-Blood Barrier and Glioblastoma Multiforme in Vitro” (Molecules : A Journal of Synthetic Chemistry and Natural …, 2018).
